This note sets out measurements from PMC7655827, “NeoR, a near-infrared absorbing rhodopsin” (Nature Communications, 2020).

SMILES strings stand for the structures.

Type in all cases: binding
Experiment [1] deals with T1, NeoR (RGC3), rhodopsin fragment (Rhizoclosmatium globosum, UniProt A0A1Y2CSJ0, T238P).
T1 construct: gene BCR33DRAFT_847233; rhodopsin domain aa 1-279; C-terminal strepII tag (Sf21) or C-terminal 1D4 tag TETSQVAPA (HEK-T, mutants)
Description: UV-Vis absorption and fluorescence of purified protein. The following applies: 50 mM HEPES pH 7.4, 200 mM NaCl, 0.02% DDM/0.004% CHS; covalent (retinal Schiff base).

Experiment [2] concerns the target T2, NeoR (RGC3), rhodopsin fragment (Rhizoclosmatium globosum, UniProt A0A1Y2CSJ0, S191A).
T2 construct: gene BCR33DRAFT_847233; rhodopsin domain aa 1-279; C-terminal strepII tag (Sf21) or C-terminal 1D4 tag TETSQVAPA (HEK-T, mutants)
The experiment is described as above. The following applies: 50 mM HEPES pH 7.4, 200 mM NaCl, 0.02% DDM/0.004% CHS; covalent (retinal Schiff base).

For experiment [3], the target named is T3, NeoR (RGC3), rhodopsin fragment (Rhizoclosmatium globosum, UniProt A0A1Y2CSJ0, E262Q).
T3 construct: gene BCR33DRAFT_847233; rhodopsin domain aa 1-279; C-terminal strepII tag (Sf21) or C-terminal 1D4 tag TETSQVAPA (HEK-T, mutants)
The description is as above. As to conditions: 50 mM HEPES pH 7.4, 200 mM NaCl, 0.02% DDM/0.004% CHS; covalent (retinal Schiff base).

Experiment [4] concerns the target T4, NeoR (RGC3), rhodopsin fragment (Rhizoclosmatium globosum, UniProt A0A1Y2CSJ0, E136Q).
T4 construct: gene BCR33DRAFT_847233; rhodopsin domain aa 1-279; C-terminal strepII tag (Sf21) or C-terminal 1D4 tag TETSQVAPA (HEK-T, mutants)
The description is as above. As to conditions: 50 mM HEPES pH 7.4, 200 mM NaCl, 0.02% DDM/0.004% CHS; covalent (retinal Schiff base).

For a further experiment, the target named is T5, NeoR full-length protein (Rhizoclosmatium globosum, UniProt A0A1Y2CSJ0).
T5 construct: gene BCR33DRAFT_847233; full length aa 1-509, C-terminal His(8) tag, Sf21 insect cells
T5 sequence (A0A1Y2CSJ0 1-509): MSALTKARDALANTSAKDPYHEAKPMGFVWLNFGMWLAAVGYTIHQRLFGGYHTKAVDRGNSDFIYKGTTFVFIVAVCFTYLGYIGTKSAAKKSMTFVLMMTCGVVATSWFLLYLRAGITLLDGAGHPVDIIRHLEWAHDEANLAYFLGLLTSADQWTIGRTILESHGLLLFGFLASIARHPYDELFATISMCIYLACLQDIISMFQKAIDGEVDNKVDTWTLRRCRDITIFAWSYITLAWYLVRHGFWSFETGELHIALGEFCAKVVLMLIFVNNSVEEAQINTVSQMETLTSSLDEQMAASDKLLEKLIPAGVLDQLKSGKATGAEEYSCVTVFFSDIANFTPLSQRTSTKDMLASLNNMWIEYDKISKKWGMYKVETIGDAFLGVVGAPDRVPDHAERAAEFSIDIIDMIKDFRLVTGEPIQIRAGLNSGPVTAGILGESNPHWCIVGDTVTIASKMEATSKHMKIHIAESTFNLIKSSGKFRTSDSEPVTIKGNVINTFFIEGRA
Kind of experiment: UV-Vis absorption of purified protein. As to conditions: detergent; covalent (retinal Schiff base).

For experiment [5], the target named is T6, NeoR (RGC3), rhodopsin fragment (Rhizoclosmatium globosum, UniProt A0A1Y2CSJ0).
T6 construct: gene BCR33DRAFT_847233; rhodopsin domain aa 1-279; C-terminal strepII tag (Sf21) or C-terminal 1D4 tag TETSQVAPA (HEK-T, mutants)
Kind of experiment: UV-Vis absorption and fluorescence of purified protein. The following applies: 50 mM HEPES pH 7.4, 200 mM NaCl, 0.02% DDM/0.004% CHS; covalent (retinal Schiff base).

For experiment [6], the target named is T7, NeoR (RGC3), rhodopsin fragment (Rhizoclosmatium globosum, UniProt A0A1Y2CSJ0, T238A).
T7 construct: gene BCR33DRAFT_847233; rhodopsin domain aa 1-279; C-terminal strepII tag (Sf21) or C-terminal 1D4 tag TETSQVAPA (HEK-T, mutants)
The experiment is described as above. As to conditions: 50 mM HEPES pH 7.4, 200 mM NaCl, 0.02% DDM/0.004% CHS; covalent (retinal Schiff base).

T1 sequence (A0A1Y2CSJ0 entry or part of it T238P): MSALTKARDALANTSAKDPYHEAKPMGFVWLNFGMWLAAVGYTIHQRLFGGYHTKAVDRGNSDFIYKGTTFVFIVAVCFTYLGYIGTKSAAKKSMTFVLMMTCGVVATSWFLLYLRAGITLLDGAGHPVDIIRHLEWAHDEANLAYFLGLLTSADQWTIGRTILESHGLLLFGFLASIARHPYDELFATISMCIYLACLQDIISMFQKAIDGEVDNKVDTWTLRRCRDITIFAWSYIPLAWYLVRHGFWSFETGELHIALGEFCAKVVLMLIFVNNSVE
T7 sequence (A0A1Y2CSJ0 entry or part of it T238A): as the sequence (A0A1Y2CSJ0 entry or part of it T238P) above, with P238A counted along it
T4 sequence (A0A1Y2CSJ0 entry or part of it E136Q): as the sequence (A0A1Y2CSJ0 entry or part of it T238P) above, with E136Q, P238T counted along it
T3 sequence (A0A1Y2CSJ0 entry or part of it E262Q): as the sequence (A0A1Y2CSJ0 entry or part of it T238P) above, with P238T, E262Q counted along it
T2 sequence (A0A1Y2CSJ0 entry or part of it S191A): as the sequence (A0A1Y2CSJ0 entry or part of it T238P) above, with S191A, P238T counted along it

Consider `CC1=C(/C=C/C(C)=C/C=C/C(C)=C/C=O)C(C)(C)CCC1` [all-trans retinal], for which the “UV-Vis absorption and fluorescence of purified protein” value in experiment [1] is “achieved by mutation of S191A and T238P/A, which are located near the β-ionone ring”; in experiment [2] it was “achieved by mutation of S191A and T238P/A, which are located near the β-ionone ring”; in experiment [3], “Mutation of either one of these to Gln results in chromophore deprotonation”; in experiment [4], “Mutation of either one of these to Gln results in chromophore deprotonation”; in experiment [5] it was “in the absence of retinal no functional rhodopsin was produced when recombinant NeoR was expressed”; in experiment [6] it was “achieved by mutation of S191A and T238P/A, which are located near the β-ionone ring”. For the same compound, the “UV-Vis absorption of purified protein” value at NeoR full-length protein was “The spectral properties are similar for the NeoR full-length protein and the rhodopsin fragment”.
